# Tests used:
# [1] = test system: linear subcutaneous-deep incision wounds in hairless mice (Skh:HR-1); experiment: Example 2 scar evaluation by Vancouver Scale at day 21 and gross evaluation; assay type: in vivo; parameters: key: Vancouver Scale subscores (18-point total), mean of two observers
# Procedure: (§1) Twelve hairless mice (Skh:HR-1) with an average weight of […] were treated topically with a local anesthetic (LMX-4, Ferndale Laboratories, Inc.) for 30 minutes prior to wounding for dermal anesthesia. Antiseptics were not used because of the possibility of their local effect on the wound healing process.
# (§2) The mice were subdivided into two groups, A and B. Each mouse received three linear, 10 mm long, subcutaneous-deep incision wounds parallel to the spinal column. The first incision was near the spinal column on the left side (C), one at a position 10 mm away from the first on the same side (L), and one on the right side about 10 mm from the center line or spinal column (R). All incision wounds were made with a 0.3 mm blade surgical blade. Because of the loose nature of the hairless mouse epidermis the wounds spread to as wide as 3 mm. Each mouse was housed separately.
# (§3) 1) 0.25% Formulations: water (79.75%), ethanol (18%), methylprednisolone acetate or prednisolone acetate (0.25%), and ammonium acryloyldimethyltaurate/VP copolymer (2%).
# (§4) 2) 1% Formulations: water (79%), ethanol (18%), methylpredinisolone acetate or prednisolone acetate (1%), and ammonium acryloyldimethyltaurate/VP copolymer (2%).
# (§5) In Group A, wounds C and L were treated with the 0.25% and 1% methylprednisolone acetate formulations, respectively, and wound R was the control or untreated wound. In Group B, wounds C and L were treated with the 0.25% and 1% prednisolone acetate formulations, respectively and wound R was the control. The study drug (methylprednisolone or prednisolone) was applied to the treatment wounds twice daily (8 hours apart) beginning 1 h after the incision on day 1 and continuing through day 21. The wounds were far enough apart to avoid the spread of the treatment gel from the treated wound to the control wound. No additional physical barrier, such as a gauze bandage, was used.
# Each mouse was kept in its cage during days 14-21. On day 21, each scar was assessed according to the Vancouver Scale (18 points) under magnification by two observers independently and the scores were averaged and recorded. Progressive re-epithelializaton of the wound surface from the wound edges continued until the wound surface was completely closed at a time between days 14 and 21.
# [2] = test system: linear subcutaneous-deep incision wounds in hairless mice (Skh:HR-1); experiment: Example 2 wound healing in hairless mice: healing evaluation by wound width; assay type: in vivo
# Procedure: as §1, §2, §3, §4, §5
# Healing evaluation was made by measuring wound closure, which was assessed by the width of the wound. The width of each scar was measured with digital calipers at the widest point while subject was lying motionless, on its ventral side. Digital photographs were taken to record the healing process. The mean width of wound was recorded on days 1, 3, 5, 7, 9, 11, 13, 15, 17, 19 and 21.
structure (smiles),measurement,setting,value
CC(=O)OCC(=O)[C@@]1(O)CC[C@H]2[C@@H]3C[C@H](C)C4=CC(=O)C=C[C@]4(C)[C@H]3[C@@H](O)C[C@@]21C [methylprednisolone acetate],"Mean Vancouver Scale Scar Scoring, Height","[1]; wound C, 0.25% formulation",0
same,"Mean Vancouver Scale Scar Scoring, Pigmentation","[1]; wound C, 0.25% formulation",1
same,"Mean Vancouver Scale Scar Scoring, Pliability","[1]; wound C, 0.25% formulation",2.0
same,"Mean Vancouver Scale Scar Scoring, Vascularity","[1]; wound C, 0.25% formulation",0
same,"Mean Vancouver Scale Scar Scoring, Height","[1]; wound L, 1% formulation",0
same,"Mean Vancouver Scale Scar Scoring, Pigmentation","[1]; wound L, 1% formulation",1
same,"Mean Vancouver Scale Scar Scoring, Pliability","[1]; wound L, 1% formulation",1.5
same,"Mean Vancouver Scale Scar Scoring, Vascularity","[1]; wound L, 1% formulation",0
same,Mean Wound Width at Widest Margin,"[2]; Day 1, wound C, 0.25% formulation twice daily",3.1 ± 0.3 mm
same,Mean Wound Width at Widest Margin,"[2]; Day 1, wound L, 1% formulation twice daily",3.0 ± 0.2 mm
same,Mean Wound Width at Widest Margin,"[2]; Day 3, wound C, 0.25% formulation twice daily",2.5 ± 0.2 mm
same,Mean Wound Width at Widest Margin,"[2]; Day 3, wound L, 1% formulation twice daily",2.4 ± 0.3 mm
same,Mean Wound Width at Widest Margin,"[2]; Day 5, wound C, 0.25% formulation twice daily",2.0 ± 0.3 mm
same,Mean Wound Width at Widest Margin,"[2]; Day 5, wound L, 1% formulation twice daily",1.9 ± 0.4 mm
same,Mean Wound Width at Widest Margin,"[2]; Day 7, wound C, 0.25% formulation twice daily",1.5 ± 0.2 mm
same,Mean Wound Width at Widest Margin,"[2]; Day 7, wound L, 1% formulation twice daily",1.4 ± 0.2 mm
same,Mean Wound Width at Widest Margin,"[2]; Day 9, wound C, 0.25% formulation twice daily",1.0 ± 0.3 mm
same,Mean Wound Width at Widest Margin,"[2]; Day 9, wound L, 1% formulation twice daily",0.9 ± 0.3 mm
same,Mean Wound Width at Widest Margin,"[2]; Day 11, wound C, 0.25% formulation twice daily",0.5 ± 0.2 mm
same,Mean Wound Width at Widest Margin,"[2]; Day 11, wound L, 1% formulation twice daily",0.5 ± 0.1 mm
same,Mean Wound Width at Widest Margin,"[2]; Day 13, wound C, 0.25% formulation twice daily",0.1 ± 0.3 mm
same,Mean Wound Width at Widest Margin,"[2]; Day 13, wound L, 1% formulation twice daily",0.1 ± 0.2 mm
same,Mean Wound Width at Widest Margin,"[2]; Day 15, wound C, 0.25% formulation twice daily",0 mm
same,Mean Wound Width at Widest Margin,"[2]; Day 15, wound L, 1% formulation twice daily",0 mm
same,Mean Wound Width at Widest Margin,"[2]; Day 17, wound C, 0.25% formulation twice daily",0 mm
same,Mean Wound Width at Widest Margin,"[2]; Day 17, wound L, 1% formulation twice daily",0 mm
same,Mean Wound Width at Widest Margin,"[2]; Day 19, wound C, 0.25% formulation twice daily",0 mm
same,Mean Wound Width at Widest Margin,"[2]; Day 19, wound L, 1% formulation twice daily",0 mm
same,Mean Wound Width at Widest Margin,"[2]; Day 21, wound C, 0.25% formulation twice daily",0 mm
same,Mean Wound Width at Widest Margin,"[2]; Day 21, wound L, 1% formulation twice daily",0 mm
